# Data reported in PubChem BioAssay AID1919004 (Molecular Pharmacology Branch, DTP, NCI, 2023).
# System: 883617-216-R-J1-PDC complex spheroids, growth, % test/control
# Assay: Anticancer human tumor 883617-216-R-J1-PDC patient-derived bladder carcinoma cell line growth inhibition [AhR]
# Settings: for IC50: curve of first compound; for viability, T/C: stronger effect = lower value
# In short: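 Spheroids combined tumor cells with HUVEC endothelial cells and human MSCs as stroma. AhR antagonists were paired with standard or investigational drugs, each dosed in half-log steps down from near clinical Cmax, or from 10 microM where Cmax was unknown.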
# [1] = second compound 0.1 µM, first compound 0.00949 µM
# [2] = second compound 0.1 µM, first compound 0.03 µM
# [3] = second compound 0.1 µM, first compound 0.0949 µM
# [4] = second compound 0.1 µM, first compound 0.3 µM
# [5] = second compound 0.316 µM, first compound 0.00949 µM
# [6] = second compound 0.316 µM, first compound 0.03 µM
# [7] = second compound 0.316 µM, first compound 0.0949 µM
# [8] = second compound 0.316 µM, first compound 0.3 µM
# [9] = second compound 1 µM, first compound 0.00949 µM
# [10] = second compound 1 µM, first compound 0.03 µM
# [11] = second compound 1 µM, first compound 0.0949 µM
# [12] = second compound 1 µM, first compound 0.3 µM
# [13] = second compound 3.16 µM, first compound 0.00949 µM
# [14] = second compound 3.16 µM, first compound 0.03 µM
# [15] = second compound 3.16 µM, first compound 0.0949 µM
# [16] = second compound 3.16 µM, first compound 0.3 µM
# [17] = second compound 10 µM, first compound 0.00949 µM
# [18] = second compound 10 µM, first compound 0.03 µM
# [19] = second compound 10 µM, first compound 0.0949 µM
# [20] = second compound 10 µM, first compound 0.3 µM
# 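Note: exposure lasted 7 days after dosing on day 3 of spheroid growth.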
compound,measurement,setting,value
CC1COCCN1c1cc(C2(S(C)(=N)=O)CC2)nc(-c2ccnc3[nH]ccc23)n1 (stereo not given) + Cc1ccccc1N=Nc1ccc(NC(=O)c2ccnn2C)c(C)c1,IC50,second compound 0.1 µM,> 10000 nM
same,IC50,second compound 0.316 µM,> 10000 nM
same,IC50,second compound 1 µM,> 10000 nM
same,IC50,second compound 3.16 µM,> 10000 nM
same,IC50,second compound 10 µM,> 10000 nM
same,"viability, T/C","second compound 0.1 µM, first compound 0.0316 µM",97.9%
same,"viability, T/C","second compound 0.1 µM, first compound 0.1 µM",97%
same,"viability, T/C","second compound 0.1 µM, first compound 0.316 µM",88%
same,"viability, T/C","second compound 0.1 µM, first compound 1 µM",84.9%
same,"viability, T/C","second compound 0.1 µM, first compound 3.16 µM",70.9%
same,"viability, T/C","second compound 0.1 µM, first compound 10 µM",54.6%
same,"viability, T/C","second compound 0.316 µM, first compound 0.0316 µM",90.5%
same,"viability, T/C","second compound 0.316 µM, first compound 0.1 µM",93.6%
same,"viability, T/C","second compound 0.316 µM, first compound 0.316 µM",81.2%
same,"viability, T/C","second compound 0.316 µM, first compound 1 µM",89.9%
same,"viability, T/C","second compound 0.316 µM, first compound 3.16 µM",82%
same,"viability, T/C","second compound 0.316 µM, first compound 10 µM",55.4%
same,"viability, T/C","second compound 1 µM, first compound 0.0316 µM",87.7%
same,"viability, T/C","second compound 1 µM, first compound 0.1 µM",90.9%
same,"viability, T/C","second compound 1 µM, first compound 0.316 µM",82.4%
same,"viability, T/C","second compound 1 µM, first compound 1 µM",84.8%
same,"viability, T/C","second compound 1 µM, first compound 3.16 µM",77.1%
same,"viability, T/C","second compound 1 µM, first compound 10 µM",54.8%
same,"viability, T/C","second compound 3.16 µM, first compound 0.0316 µM",86.5%
same,"viability, T/C","second compound 3.16 µM, first compound 0.1 µM",77.6%
same,"viability, T/C","second compound 3.16 µM, first compound 0.316 µM",75%
same,"viability, T/C","second compound 3.16 µM, first compound 1 µM",75%
same,"viability, T/C","second compound 3.16 µM, first compound 3.16 µM",61.5%
same,"viability, T/C","second compound 3.16 µM, first compound 10 µM",58.8%
same,"viability, T/C","second compound 10 µM, first compound 0.0316 µM",75.7%
same,"viability, T/C","second compound 10 µM, first compound 0.1 µM",81.5%
same,"viability, T/C","second compound 10 µM, first compound 0.316 µM",82%
same,"viability, T/C","second compound 10 µM, first compound 1 µM",77.3%
same,"viability, T/C","second compound 10 µM, first compound 3.16 µM",73.5%
same,"viability, T/C","second compound 10 µM, first compound 10 µM",57.1%
Nc1ncn(C2CC(O)C(CO)S2)c(=O)n1 (stereo not given) + Cc1ccccc1N=Nc1ccc(NC(=O)c2ccnn2C)c(C)c1,IC50,second compound 0.1 µM,> 300 nM
same,IC50,second compound 0.316 µM,> 300 nM
same,IC50,second compound 1 µM,> 300 nM
same,IC50,second compound 3.16 µM,> 300 nM
same,IC50,second compound 10 µM,> 300 nM
same,"viability, T/C","second compound 0.1 µM, first compound 0.000949 µM",98.4%
same,"viability, T/C","second compound 0.1 µM, first compound 0.003 µM",90.2%
same,"viability, T/C",[1],88.8%
same,"viability, T/C",[2],88.7%
same,"viability, T/C",[3],87.3%
same,"viability, T/C",[4],75.8%
same,"viability, T/C","second compound 0.316 µM, first compound 0.000949 µM",83.9%
same,"viability, T/C","second compound 0.316 µM, first compound 0.003 µM",93.8%
same,"viability, T/C",[5],83.5%
same,"viability, T/C",[6],81.2%
same,"viability, T/C",[7],84.6%
same,"viability, T/C",[8],75.5%
same,"viability, T/C","second compound 1 µM, first compound 0.000949 µM",84.3%
same,"viability, T/C","second compound 1 µM, first compound 0.003 µM",84.2%
same,"viability, T/C",[9],99.2%
same,"viability, T/C",[10],80.3%
same,"viability, T/C",[11],76.1%
same,"viability, T/C",[12],80.7%
same,"viability, T/C","second compound 3.16 µM, first compound 0.000949 µM",81.7%
same,"viability, T/C","second compound 3.16 µM, first compound 0.003 µM",87.9%
same,"viability, T/C",[13],85%
same,"viability, T/C",[14],73.3%
same,"viability, T/C",[15],86.4%
same,"viability, T/C",[16],78.7%
same,"viability, T/C","second compound 10 µM, first compound 0.000949 µM",73.8%
same,"viability, T/C","second compound 10 µM, first compound 0.003 µM",68.5%
same,"viability, T/C",[17],76.3%
same,"viability, T/C",[18],79.2%
same,"viability, T/C",[19],76.9%
same,"viability, T/C",[20],83.4%
O=C(C=Cn1cnc(-c2cc(C(F)(F)F)cc(C(F)(F)F)c2)n1)NNc1cnccn1 + Cc1ccccc1N=Nc1ccc(NC(=O)c2ccnn2C)c(C)c1,IC50,second compound 0.1 µM,443 nM
same,IC50,second compound 0.316 µM,442 nM
same,IC50,second compound 1 µM,535 nM
same,IC50,second compound 3.16 µM,274 nM
same,IC50,second compound 10 µM,268 nM
same,"viability, T/C",[1],76.4%
same,"viability, T/C",[2],79.8%
same,"viability, T/C",[3],61.7%
same,"viability, T/C",[4],54.5%
same,"viability, T/C","second compound 0.1 µM, first compound 0.949 µM",43.7%
same,"viability, T/C","second compound 0.1 µM, first compound 3 µM",34.4%
same,"viability, T/C",[5],72%
same,"viability, T/C",[6],62.8%
same,"viability, T/C",[7],60.8%
same,"viability, T/C",[8],49.8%
same,"viability, T/C","second compound 0.316 µM, first compound 0.949 µM",48.6%
same,"viability, T/C","second compound 0.316 µM, first compound 3 µM",36.7%
same,"viability, T/C",[9],70.5%
same,"viability, T/C",[10],66.9%
same,"viability, T/C",[11],58%
same,"viability, T/C",[12],44.7%
same,"viability, T/C","second compound 1 µM, first compound 0.949 µM",57.1%
same,"viability, T/C","second compound 1 µM, first compound 3 µM",40.3%
same,"viability, T/C",[13],64.1%
same,"viability, T/C",[14],63.6%
same,"viability, T/C",[15],56.2%
same,"viability, T/C",[16],46.3%
same,"viability, T/C","second compound 3.16 µM, first compound 0.949 µM",44.5%
same,"viability, T/C","second compound 3.16 µM, first compound 3 µM",35.4%
same,"viability, T/C",[17],65.5%
same,"viability, T/C",[18],59.7%
same,"viability, T/C",[19],52.5%
same,"viability, T/C",[20],51%
same,"viability, T/C","second compound 10 µM, first compound 0.949 µM",45.4%
same,"viability, T/C","second compound 10 µM, first compound 3 µM",39%
